The values that follow come from PubChem BioAssay (NCI).

Each structure is given as a SMILES string.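 Tested at 5 concentrations; 48 h exposure; 96-well plates; endpoints linearly interpolated, else capped at highest concentration. The concentration for full growth arrest is given as TGI.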

Holding throughout (test): NCI-60 cell line screen, 48 h
Assay [1] concerns K-562 leukemia.
The subject of assay [2] is DLD-1 colon.
In assay [3] the test system is NCI-H522 lung.
Assay [4] concerns SNB-78 CNS.
For assay [5], the system named is KM20L2 colon.
Assay [6] concerns COLO 205 colon.
For assay [7], the system named is HCT-116 colon.
In assay [8] the test system is OVCAR-8 ovarian.
Assay [9] deals with M19-MEL melanoma.
Assay [10] relates to MDA-MB-435.
Assay [11] concerns A549 NSCLC.
Assay [12] concerns SF-268 CNS.

Consider `Oc1cc(-n2cccn2)c(O)cc1-n1cccn1`, for which the TGI in assay [1] is 39.3 µM; in [2], above 94.8 µM; in [3], 26.8 µM; in assay [4], above 68.7 µM; in assay [5], above 100 µM; in assay [6], 37.9 µM. In addition, the TGI in assay [7] was above 64.1 µM; in assay [8], 51.9 µM; in [9] it was 51.1 µM; in assay [10], 31.8 µM; in assay [11], above 100 µM; in assay [12], above 82.5 µM.
